pEC50, pIC50: −log10 of the molar value.
Assays:
[1] = Partial antagonist activity at CRTH2 in human eosinophils assessed as inhibition of PGD2-induced shape change by FACS analysis
[2] = Antagonist activity at CRTH2 in human eosinophils assessed as inhibition of PGD2-induced shape change by gated autofluorescence forward scatter analysis

pEC50 [1] | pIC50 [2] | Structure (SMILES)
6.41 |  | COc1ccc2c(c1)c(CC(=O)O)c(C)n2C(=O)c1ccc(Cl)cc1 [indometacin]
 | 7.36 | C[C@H](Oc1ccc(F)cc1-c1ccc(C(=O)N2CCCC2(C)C)c(Cl)c1)C(=O)O
 | 6.20 | CN(C)c1nc(Cc2ccc(NC(=O)c3ccc(C(F)(F)F)cc3)cc2)nc(N(C)C)c1CC(=O)O [2-(4,6-bis(dimethylamino)-2-(4-(4-(trifluoromethyl)benzamido)benzyl)pyrimidin-5-yl)acetic acid]

— BindingDB's records for doi:10.1021/jm2013997 (Oxagen, 2012)
